Experimental data from article PMC5728534 (PLoS ONE, 2017).
Numbering of substitutions follows the chain as printed. “Also recorded” adds a separate entry of the source.

Tests used:
[1] = dogs; cited from earlier work
[2] = biological target: T1, OCT1*6 (Cys88Arg/Met420del) (Homo sapiens, UniProt O15245, C88R/DEL420-420/L160F); experiment: Ranitidine uptake in HEK293 cells overexpressing OCT1*6; format: in vitro ADME; settings: 1 μM and 10 μM ranitidine, 2 min
T1 construct: expressed in transfected cells; host or cells: HEK293 T-REx (Flp-In)
T1 sequence (O15245 with tags, fused parts or gaps C88R/L160F/DEL420-420): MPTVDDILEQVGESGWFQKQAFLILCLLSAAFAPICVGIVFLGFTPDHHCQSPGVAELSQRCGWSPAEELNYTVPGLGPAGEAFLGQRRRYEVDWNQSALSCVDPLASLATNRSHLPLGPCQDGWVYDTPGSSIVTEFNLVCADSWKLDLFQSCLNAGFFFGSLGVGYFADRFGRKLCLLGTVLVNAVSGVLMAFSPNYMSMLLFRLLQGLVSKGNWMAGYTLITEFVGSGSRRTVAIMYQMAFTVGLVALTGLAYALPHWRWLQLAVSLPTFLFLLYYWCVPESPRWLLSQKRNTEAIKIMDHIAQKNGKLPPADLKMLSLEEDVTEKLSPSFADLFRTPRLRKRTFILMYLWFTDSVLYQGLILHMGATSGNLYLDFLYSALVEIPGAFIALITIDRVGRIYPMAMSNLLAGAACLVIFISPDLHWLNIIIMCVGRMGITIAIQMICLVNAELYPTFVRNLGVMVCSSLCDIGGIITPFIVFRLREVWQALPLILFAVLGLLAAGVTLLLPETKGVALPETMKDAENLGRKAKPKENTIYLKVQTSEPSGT
From the text: (§1) HEK293 or CHO cells overexpressing the human OCT1 alleles *1A (characterized by the amino acid substitution Met408Val), *1B, *1C (Phe160Leu), *1D (Pro341Leu/Met408Val), *2 (Met420del), *3 (Arg61Cys), *4 (Gly401Ser), *5 (Gly465Arg/Met420del), *6 (Cys88Arg/Met420del), *7 (Ser14Phe), *8A (Arg488Met), *8B (Arg488Met/Met408Val), *9 (Pro117Leu), *10 (Ser189Leu), *11 (Ile449Thr), *12 (Ser29Leu), or *13 (Thr245Met), the human OCT2 reference and variant alleles (Ala270Ser), human OCT3, and the control cells (transfected with the empty pcDNA5 vector) were generated by targeted chromosomal integration using the Flp-In™ System (Life Technologies, Darmstadt, Germany).
(§2) Six hundred thousand HEK293 or CHO cells were plated per well in 12-well plates (pre-coated with poly-D-lysine) and were grown for 48 hours to reach confluence. Cells were kept at 37°C and 5% CO2 in DMEM (HEK293) or RPMI (CHO), supplemented with 10% FCS, 100 U/ml penicillin, and 100 μg/ml streptomycin. Uptake experiments were performed at pH 7.4 using HBSS supplemented with 10 mM HEPES buffer (herein referred to as HBSS+). […]
(§3) For all transport measurements, the intracellular amount of substrate was normalized to the total amount of protein of the sample as measured using the bicinchoninic acid assay [49].
(§4) For quantification of intracellular substrates, the cell debris were removed by centrifugation at 17,000 x g for 10 min. […]

[3] = physiological pH of 7.4; no reference given; cited from earlier work
OCT1*1A (Met408Val) = biological target: T2, OCT1*1A (Met408Val) (Homo sapiens, UniProt O15245, L160F/M408V); settings: 1 and 10 μM ranitidine, 2 min
T2 sequence (O15245 1-554 L160F/M408V): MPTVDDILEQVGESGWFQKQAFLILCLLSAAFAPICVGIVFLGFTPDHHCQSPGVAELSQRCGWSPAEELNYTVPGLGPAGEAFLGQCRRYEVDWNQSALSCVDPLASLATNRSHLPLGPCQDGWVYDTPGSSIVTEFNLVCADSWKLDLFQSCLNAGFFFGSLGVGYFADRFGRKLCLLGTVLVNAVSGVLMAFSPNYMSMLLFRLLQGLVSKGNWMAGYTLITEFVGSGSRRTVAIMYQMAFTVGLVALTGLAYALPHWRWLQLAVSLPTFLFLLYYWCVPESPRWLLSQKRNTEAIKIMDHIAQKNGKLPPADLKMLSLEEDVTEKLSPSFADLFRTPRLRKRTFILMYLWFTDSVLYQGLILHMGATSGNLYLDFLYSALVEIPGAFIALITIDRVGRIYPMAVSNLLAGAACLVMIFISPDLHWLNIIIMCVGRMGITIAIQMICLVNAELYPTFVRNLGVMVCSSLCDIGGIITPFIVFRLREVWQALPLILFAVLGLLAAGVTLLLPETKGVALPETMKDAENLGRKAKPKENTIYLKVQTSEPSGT
From the text: as §1, §2, §3, §4

OCT1*2 (Met420del) = biological target: T3, OCT1*2 (Met420del) (Homo sapiens, UniProt O15245, DEL420-420/L160F)
T3 sequence (O15245 with tags, fused parts or gaps L160F/DEL420-420): T1 sequence (O15245 with tags, fused parts or gaps C88R/L160F/DEL420-420) with R88C
From the text: as §1, §2, §3, §4

OCT1*8 (Arg488Met) = biological target: T4, OCT1*8 (Arg488Met) (Homo sapiens, UniProt O15245, L160F/R488M); settings: not statistically significant (P = 0.5)
T4 sequence (O15245 1-554 L160F/R488M): T2 sequence (O15245 1-554 L160F/M408V) with V408M, R488M
From the text: as §1, §2, §3, §4

[4] = set-up: method as in ref 5 = [5]; 5 Inc. G. PrZANTAC ® [product monograph]. Canada: GlaxoSmithKline Inc.; 2015 [updated 15.01.2015; cited 2016 21.10.2016].; settings: long-term toxicity tests in animals; cited from earlier work

For `CNC(=C[N+](=O)[O-])NCCSCc1ccc(CN(C)C)o1` [ranitidine, Ranitidine], the “reduction of basolateral uptake by co-administration of probenecid” value [1] is given as “four-fold”, the ranitidine transport activity [2] is given as “completely lacked ranitidine uptake; also recorded: complete lack of ranitidine transport activity” and the “ranitidine molecules that are positively charged organic cations” value [3] is given as 86%. The “uptake of ranitidine compared to the reference allele” value (OCT1*1A (Met408Val)) was “no significant difference”, the “decrease of vmax compared to the reference allele” value (OCT1*2 (Met420del); OCT1*2) was “more than 50%” and the “Vmax (±SEM)” value (OCT1*2 (Met420del); OCT1*2 Met420del, HEK293, 10-600 μM ranitidine, 2 min) was 402.04 (±51.24) pmol x min^-1 x mg protein^-1. For the same compound, the “increase in vmax compared to the reference allele” value (OCT1*8 (Arg488Met)) was 25% and the “plasma concentrations exceeding the human maximal plasma concentration without significant adverse reactions” value [4] was 50 fold.
